Assay results as given in ChEMBL document CHEMBL1201862, “PubChem BioAssay data set” (2004).
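Step 1: Grow cells in 96-well plates. Step 2: Expose to compound for 48 hours at 5 concentrations. Step 3: Interpolate endpoints linearly; if unreached, use highest concentration. GI50 marks 50% less growth.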 Active and inactive are the calls of the source. Cut-off read from the data, not from the text of the source: active = GI50 up to about 1.1 µM and inactive = higher.

Columns and labels:
Test in all cases: NCI-60 cell line screen, 48 h
A498 = test system: A498
A549 = test system: A549
DU-145 = test system: DU-145
HL-60 = test system: HL-60
HT-29 = test system: HT-29
Hs-578T = test system: Hs-578T
NCI-H460 = test system: NCI-H460
OVCAR-3 = test system: OVCAR-3
RXF 393 = test system: RXF 393
SF-268 = test system: SF-268
SF-295 = test system: SF-295
SK-MEL-28 = test system: SK-MEL-28
SN12C = test system: SN12C
SR = test system: SR
SW-620 = test system: SW-620
TK-10 = test system: TK-10
UACC-257 = test system: UACC-257
UO-31 = test system: UO-31
SK-MEL-2 = test system: SK-MEL-2
SNB-75 = test system: SNB-75

SMILES	GI50 (A498)	GI50 (A549)	GI50 (DU-145)	GI50 (HL-60)	GI50 (HT-29)	GI50 (Hs-578T)	GI50 (NCI-H460)	GI50 (OVCAR-3)	GI50 (RXF 393)	GI50 (SF-268)	GI50 (SF-295)	GI50 (SK-MEL-28)	GI50 (SN12C)	GI50 (SR)	GI50 (SW-620)	GI50 (TK-10)	GI50 (UACC-257)	GI50 (UO-31)	GI50 (SK-MEL-2)	GI50 (SNB-75)
CNC(=O)OC(C)CN1c2ccccc2Sc2ccccc21 (configuration not stated)	> 100 µM (inactive)	86.3 µM (inactive)	> 100 µM (inactive)	7.69 µM (inactive)	80 µM (inactive)	> 100 µM (inactive)	57.3 µM (inactive)	> 100 µM (inactive)	36.2 µM (inactive)	> 100 µM (inactive)	45.1 µM (inactive)	> 100 µM (inactive)	> 100 µM (inactive)	86.3 µM (inactive)	> 100 µM (inactive)	> 100 µM (inactive)	> 100 µM (inactive)	> 100 µM (inactive)	–	–
O=C1CCc2c3c(c4c([nH]c5ccccc54)c2CC1)C(=O)NC3=O	2.22 µM (inactive)	7.05 µM (inactive)	9.98 µM (inactive)	0.671 µM (active)	3.53 µM (inactive)	2.08 µM (inactive)	1.58 µM (inactive)	3.51 µM (inactive)	1.91 µM (inactive)	7.85 µM (inactive)	6.01 µM (inactive)	3.14 µM (inactive)	4.32 µM (inactive)	–	0.815 µM (active)	10.2 µM (inactive)	5.05 µM (inactive)	0.998 µM (active)	2.7 µM (inactive)	0.0265 µM (active)
Cc1cc2c(cc1C)C(=O)/C(=N/Nc1ccc(F)cc1)CCO2	> 100 µM (inactive)	> 100 µM (inactive)	> 100 µM (inactive)	26.4 µM (inactive)	24.6 µM (inactive)	> 100 µM (inactive)	> 100 µM (inactive)	> 100 µM (inactive)	–	> 100 µM (inactive)	27.1 µM (inactive)	> 100 µM (inactive)	> 100 µM (inactive)	> 100 µM (inactive)	> 100 µM (inactive)	> 100 µM (inactive)	> 100 µM (inactive)	> 100 µM (inactive)	20.4 µM (inactive)	–
CCOC(=O)CC(=O)Nc1c(C(=O)OCC)sc2nc(SC)nc(Nc3ccc(OC)c(OC)c3)c12	28.9 µM (inactive)	0.36 µM (active)	39.7 µM (inactive)	> 100 µM (inactive)	60.1 µM (inactive)	7.73 µM (inactive)	–	10.7 µM (inactive)	10.7 µM (inactive)	3.19 µM (inactive)	7.59 µM (inactive)	> 100 µM (inactive)	60.3 µM (inactive)	–	> 100 µM (inactive)	17.8 µM (inactive)	> 100 µM (inactive)	> 100 µM (inactive)	25.6 µM (inactive)	1.99 µM (inactive)
O=[N+]([O-])c1ccc([I+]c2ccccc2)cc1	2.05 µM (inactive)	6.64 µM (inactive)	8.93 µM (inactive)	5.4 µM (inactive)	2.97 µM (inactive)	3.85 µM (inactive)	5.52 µM (inactive)	3.13 µM (inactive)	3.54 µM (inactive)	6.61 µM (inactive)	1.27 µM (inactive)	3.6 µM (inactive)	1.61 µM (inactive)	2.53 µM (inactive)	4.49 µM (inactive)	8.91 µM (inactive)	4.29 µM (inactive)	6.03 µM (inactive)	–	–
N#CN1C2CCC1CC(=O)C2	> 100 µM (inactive)	> 100 µM (inactive)	> 100 µM (inactive)	> 100 µM (inactive)	> 100 µM (inactive)	> 100 µM (inactive)	> 100 µM (inactive)	> 100 µM (inactive)	–	> 100 µM (inactive)	> 100 µM (inactive)	> 100 µM (inactive)	> 100 µM (inactive)	> 100 µM (inactive)	> 100 µM (inactive)	> 100 µM (inactive)	> 100 µM (inactive)	> 100 µM (inactive)	> 100 µM (inactive)	> 100 µM (inactive)
Cc1ccc(C(=O)N(C2CCCCC2)C2CCCCC2)cc1/N=N/N(C)C	–	13.7 µM (inactive)	> 10 µM (inactive)	6.07 µM (inactive)	6.08 µM (inactive)	21.3 µM (inactive)	15.1 µM (inactive)	6.34 µM (inactive)	–	10.8 µM (inactive)	11.4 µM (inactive)	7.14 µM (inactive)	15.4 µM (inactive)	18.2 µM (inactive)	8.83 µM (inactive)	9.82 µM (inactive)	12.9 µM (inactive)	12.8 µM (inactive)	2.76 µM (inactive)	–
